A melting point compilation (Tetko et al.; mined from patent text by program, amines drawn as free bases though some values may be those of a salt)

Point of comparison: `COc1ccc(CN(C)CC=CCc2ccc(NC(=O)c3cccc4c(=O)c5ccccc5[nH]c34)cc2)cc1OC`, melting point 140 °C. Against it:
- Cc1cccc(C)c1NC(=O)c1ccc(S(C)=O)cc1 (configuration not stated) — higher, 144 to 146 °C
- CC(C)c1nn(-c2ccc(C(F)(F)F)cn2)cc1CCCOc1cc(CCC(=O)O)n(C)n1 — lower, 131 to 132 °C
- CC(C)Sc1ccc(NC(=O)c2cc(Cl)ccc2NS(=O)(=O)c2ccc(Cl)cc2)cc1 — higher, 168 to 169 °C
- O=C(NC/C=C/c1ccccc1)c1ccoc1 — lower, 115 °C
- CCCc1c(OCC(O)CSc2nc3ccc(C(=O)O)cc3[nH]2)ccc(C(C)=O)c1O (configuration not stated) — lower, 133 to 135 °C
- CCCCc1cn(-c2cccn2CC)c(=O)n1Cc1ccc(-c2ccccc2-c2nnn[nH]2)nc1 — higher, 174 to 175 °C
- COC(=O)c1cc(NC(=O)C(F)(F)F)c2cc(Cc3ccc(F)cc3)cnc2c1O — higher, 191 to 192 °C
- O=C1CCCN1CCn1c(=O)[nH]c2ncc(-c3ccc(-c4nc[nH]n4)cc3)nc21 — higher, 300 to 301 °C
- COC(=O)C(C)Oc1ccc(NC(=O)CCCCCOCc2ccccc2)cc1 (configuration not stated) — lower, 73 to 76.5 °C
- COc1ccc(C(=O)[NH+]([O-])c2c(Cl)cncc2Cl)c2c1oc1ccc(C(F)(F)F)cc12 (configuration not stated) — higher, 272 °C
- COC(=O)c1cc(C(=O)c2c(C)c(OC)c3c(OCC(=O)O)cccn23)ccc1N — higher, 164 °C
- COc1ccc(C(=O)NCCCC(=O)O)cc1OCc1ccccc1 — higher, 156 to 158 °C
- CC1CNc2c(C#N)cnn2C1c1cc(Cl)ccc1Cl (configuration not stated) — higher, 184 to 185 °C
- NS(=O)(=O)c1cc2[nH]c(CCl)nc2cc1Cl — higher, 296 to 301 °C
- Cc1cc(Cl)ccc1NC(=O)NCCCl — higher, 190 °C
- COC1(c2cccc(Sc3ccc4c(c3)C(C)(C)S(=O)(=O)C4(C)C)c2)CCOCC1 — lower, 133 to 135 °C
- CC(Cc1ccccc1)(C(=NC#N)NCCc1ccccc1)c1ccccn1 (configuration not stated) — higher, 162 to 164 °C
- Cc1cccc2c(=O)[nH]c(CCCN3CCC[C@@H]3CO)cc12 — higher, 150 to 151 °C
- NC(=O)CC[C@@H](CF)NC(=O)OCc1ccccc1 — higher, 154 to 157 °C
- CC(=O)N1CCN=C1Nc1cc(-c2ccccc2)nn1C — higher, 154 to 155 °C
- O=[N+]([O-])c1ccc(OCCN2CCN(c3cc(Cl)nnc3Cl)CC2)cc1 — lower, 128 to 129 °C
- CCSc1nc2c(C)sc(C(=O)O)c2n1Cc1ccc(-c2ccccc2-c2nnnn2C(c2ccccc2)(c2ccccc2)c2ccccc2)cc1 — not separable, 138 to 140 °C
- CN(C)CCCOc1ccc(-c2nn(CC(=O)OCc3ccccc3)c3ncccc23)cc1 — lower, 90 to 92 °C
- O=C(O)CCc1ccc(Sc2ccc(CCC(=O)O)cc2C(F)(F)F)c(C(F)(F)F)c1 — higher, 175 to 178 °C
- c1cc2sccc2cn1 — lower, < 50 °C
- Cc1c(SCCCCl)ccnc1CSc1nc2cc(F)ccc2[nH]1 — higher, 188 to 191 °C
- c1ccc(OCc2ccc(OCc3ccc4ccccc4n3)cc2)cc1 — lower, 100 to 111 °C
- CCCC(=O)NCC1Cc2cccc3cccc1c23 (configuration not stated) — lower, 111 °C
- CSc1nc2ccnn2c(NCc2ccco2)c1C#N — lower, 110 °C
- CN(CCOc1ccc(C(N)=O)cc1)CCc1ccc([N+](=O)[O-])cc1 — lower, 116 to 118 °C
- CC(C)c1cccc(C(C)C)c1N1C(=O)c2cccc3c(Br)ccc(c23)C1=O — higher, 277 °C
- Cn1nc(-c2ncc(Cl)cc2F)c(Cl)c1C(F)(F)F — lower, 76 to 78 °C
- O=C1N(Cc2ccc(C(F)(F)F)o2)c2ccccc2C12COc1cc3c(cc12)OCCO3 (configuration not stated) — lower, 53 to 56 °C
- COc1ccc(C(=O)N2C(C)Cc3ccccc3C2CNC(=O)c2cc(OC)c(OC)c(OC)c2)cc1 (configuration not stated) — higher, 213 to 215 °C
- Cc1ccc(C2CCN(C(=O)CCC(=O)c3ccc4c(c3)CCNCC4)CC2)cc1 — lower, 115 to 116 °C
- CCN(CC)C(=O)c1cc2ccsc2c(-c2ccccc2Cl)n1 — lower, 86 °C
- CS(=O)(=O)c1ccc(-c2cc(C(F)F)nn2-c2cccc(C(F)(F)F)c2)cc1F — lower, 110 to 111 °C
- N#CC(C#N)=CN(N=C(C#N)C#N)c1cccc(Cl)c1 — lower, 113 to 115 °C
- COC(=O)c1cc(CO)ccc1O — lower, 66 to 67 °C
- CC(C)OC(=O)Nc1ccc(NC(=O)CBr)c([N+](=O)[O-])c1 — higher, 195 to 197 °C
- CN1CCN(c2cnn(C)c(=O)c2C=NO)CC1 — higher, 168 to 169 °C
- CCCCCCCCCCCc1nnc2n1-c1ccccc1C(c1ccc(Cl)cc1)NC2 (configuration not stated) — lower, 94 to 95 °C
- Fc1ccc(-c2nc(=S)n(Cc3ccccc3)[nH]2)c(Cl)c1 — lower, 135 to 136 °C
- OCc1cccc2nc(-c3ccncc3)oc12 — higher, 146 to 147 °C
- COc1ccc2[nH]c(C=Cc3ccc(OC)c(OC)c3)nc2c1 — higher, 246 to 249 °C
- O=[N+]([O-])C[C@@H](O)[C@H](O)[C@@H](O)[C@@H](O)CO — lower, 89 to 91 °C
- CSc1n[nH]c(NC(=O)c2ccccc2O)n1 — higher, 306 to 309 °C
- COC(=O)Nc1ccc(OC(=O)OC)cc1I — lower, 106 °C
- CC1(C)C(=O)Nc2cc(C(=O)CBr)ccc21 — higher, 230 to 232 °C
- CCOC(=O)C(=CNc1ncnc2ccc(N(C(=O)CC(C)(C)C)C(=O)CC(C)(C)C)cc12)C(=O)OCC — lower, 100 to 102 °C
- CONC(=O)Nc1cc(C(C)(C)C)on1 — higher, 145 to 148 °C
- COc1cc(-c2ccc(=O)[nH]n2)ccc1OC(F)F — higher, 170 °C
- O=C(NC(=O)c1c(F)cccc1F)Nc1ccc2c(c1)C(F)(F)OC(F)(F)O2 — higher, 231 °C
- CON(c1ccc(C#N)cc1Cl)S(=O)(=O)c1ccc(C)cc1 — higher, 145 to 147 °C
- CC(=O)c1ccc(C2=CCC(C)CC2)cc1 (configuration not stated) — lower, 50 to 52 °C
- CCc1ccc2nc(C)[nH]c2c1N1CC(CNC(C)=O)OC1=O (configuration not stated) — higher, 217 to 218 °C
- CCOC(=O)c1cn(-c2cc(OC)c(F)cc2[N+](=O)[O-])c2c(Cl)c(F)c(F)cc2c1=O — higher, 244 to 248 °C
- CN(c1ccc(Cl)nc1)S(C)(=O)=O — lower, 87 to 90 °C
- COc1ccc(C2=NC(C#N)CN2c2ccc(OCc3ccccc3)cc2)cc1 (configuration not stated) — lower, 121 to 122 °C
- CC1=C(C(=O)Nc2cc(C(=O)OC(C)C)ccc2F)SCCO1 — lower, 132 to 135 °C
- CCc1cc2c([nH]c1=O)C(=O)C=CC2=O — higher, 168 °C
- COC(=O)COc1cccc2c(CNS(=O)(=O)CCCCCc3ccccc3)coc12 — lower, 84.5 to 85.5 °C
- CCOC(=O)C(NC(=O)c1ccccc1)C(C)C (configuration not stated) — lower, 74 °C
- COc1cc(COc2nc(-c3ccccc3)ncc2CO)ccc1OCc1nc(-c2ccco2)oc1C — higher, 150 to 151 °C
- CCCc1c(OCCCOc2ccc(C(=O)OCC)cc2Cl)ccc(C(C)=O)c1O — lower, 101 to 102 °C
- Cc1ccsc1-c1nc(-c2c(F)cccc2Cl)nn1C — lower, 80 to 82 °C
- C=CCCCCCCCCCOc1ccc(-c2ccc(O)cc2)cc1 — lower, 135 to 136 °C
- CC1CC(C)CN(C(=O)C2Cc3ccccc3N2)C1 (configuration not stated) — lower, 131 to 133 °C
- Cc1cc2nc(Cl)c3cnccc3n2n1 — higher, 170 °C
- C/C(=C\c1ccc(C=O)cc1)c1ccc2c(c1)C(C)(C)CCO2 — lower, 102 to 104 °C
- Cc1nc(N2CCCCC2)ccc1N1CCCn2c1nc1c(Cl)ccc(C(OC(F)F)C(F)(F)F)c12 (configuration not stated) — higher, 164 to 167 °C
- COCC(O)COc1cccc2c1CCNC2=O (configuration not stated) — lower, 119 to 123 °C
- COC(=O)CCn1nc(-c2c(-c3ccccc3)nn3ccccc23)ccc1=O — lower, 133 to 134 °C
- O=c1[nH]c2c(c3nc(-c4ccccc4F)nn13)CCCCC2 — higher, 257 to 259 °C
- O=C1CC[N+]([O-])=C(c2ccccc2Cl)c2cc(Cl)ccc21 — higher, 184 to 187 °C
- COc1ccc2cc([C@H](C)C(=O)OCC(=O)N3CCC(CCO[N+](=O)[O-])CC3)ccc2c1 — lower, 83 to 85 °C
- CCC1(CCCCN2CCN(c3ccc(C)c(Cl)c3)CC2)C(=O)Nc2ccccc21 (configuration not stated) — lower, 103 to 106 °C
- CC(C)c1ccccc1N1/C(=N\N=C/c2ccc(-c3ncn(-c4ccc(OC(F)(F)F)cc4)n3)cc2)SCC1(C)O (configuration not stated) — lower, 114 to 116 °C
- C#Cc1cccc(Nc2ncnc3cc(OCCOC)c(OCCOC(C)=O)cc23)c1 — lower, 84 to 87 °C
- O=C=Nc1ccc(OCCOc2ccc(N=C=O)cc2)cc1 — lower, 95 to 97 °C
- CC(=O)C1=CCC2C3CCC4CC5OC5CC4(C)C3C(=O)CC12C (configuration not stated) — higher, 154 to 156 °C
- CC(=O)Nc1nc(CCc2ccc(CO)cc2)cs1 — higher, 162 to 165 °C
- COCCN1CCC(c2ccc(C(=O)NC3(C(=O)NCC#N)CCCCC3)cc2)CC1 — higher, 160 to 162 °C
- Cn1ccnc1-c1ccc(OCC(O)CNCCOc2ccc(O)c(C(N)=O)c2)cc1 (configuration not stated) — lower, 108 to 112 °C
- CCC(CSC(=S)N(C)C)[N+](=O)[O-] (configuration not stated) — lower, 23 °C
- Cn1cnc2nc(-c3ccc(C#N)cc3)nn2c1=S — higher, > 300 °C
- CCOC(=O)C1=C(C)OC(=O)C1=C(C)O — lower, 106 to 108 °C
- CCc1nc2c(N)nc3cc(OCCc4c[nH]c5ccccc45)ccc3c2s1 — higher, 218 to 220 °C
- COc1ccc(F)c(F)c1C=NO — higher, 199 to 201 °C
- Cc1cccc(C(=O)O)c1NC(=O)COc1ccccc1 — higher, 174 to 176 °C
- Nc1cccc(-c2ccc(C3(O)C4CCC3CN(Cc3ccco3)C4)cc2)n1 (configuration not stated) — higher, 187 to 202 °C
- CCOC(=O)C1=C(C)NC(C)=C(C(=O)OC)C1c1ccccc1/C=C/C(=O)OC(C)(C)C (configuration not stated) — higher, 165 to 167 °C
- CN(C)CCCN(C)C(=O)C(Cc1ccccc1)NC(=O)c1cc2cc(Cl)ccc2[nH]1 (configuration not stated) — higher, 187 to 190 °C
- COC(=O)c1ccc(OC2CCOC2=O)c([N+](=O)[O-])c1 (configuration not stated) — lower, 99 to 101 °C
- CCCCC(Cc1ccc(OCCNC(=O)c2ccc(Oc3ccccc3)nc2)cc1)C(=O)O (configuration not stated) — lower, 124 to 125 °C
- Cc1ccc2nc(CCl)nc(Cl)c2c1 — lower, 111 to 112 °C
- CSc1ccc(CSc2nnc(-c3ccc4[nH]ncc4c3)o2)cc1C(F)(F)F — higher, 184 to 185 °C
- CC1COc2c(Br)c(F)cc3c(=O)c(C(=O)O)cn1c23 (configuration not stated) — higher, > 250 °C
- CC1=C(CCCl)C(=O)C2Sc3ccccc3N2C1 (configuration not stated) — lower, 114 °C
- O=[N+]([O-])c1sc(-c2cccnc2)nc1Cl — lower, 110 to 112 °C
- CCCN=C(N)Nc1ccnc(CCCCC(N)=O)n1 — higher, 212 to 214 °C
